Columns and labels:
[1] = test system: PC-9 cells (EGFR Ex19Del); test: Potency Assay: pERK (SOS1 pERK IC50 Assay, AlphaLISA SureFire Ultra p-ERK1/2); type: cell-based; details: Homo sapiens; PC-9 cells (EGFR Ex19Del), 1 hour incubation, AlphaLISA p-ERK1/2; read-out: SOS1 pERK IC50
In short: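 Cellular pERK1/2 by AlphaLISA SureFire Ultra after 1 h compound exposure (37° C., highest concentration 10 μM, 3-fold steps, duplicates) of EGFR Ex19Del PC-9 cells seeded the day before. A 4-parameter fit of signal versus log concentration gives IC50.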

[2] = biological target: T1, SOS1 catalytic domain (residues 564-1049) (Homo sapiens, UniProt Q07889); test: Potency Assay: binding affinity to SOS1 using Surface Plasmon Resonance (SPR); design: SOS1 catalytic domain (residues 564-1049) immobilized on a sensor chip; details: immobilized SOS1 catalytic domain (residues 564-1049), read-out: SOS1 SPR Equilibrium Kd
T1 sequence (Q07889 564-1049): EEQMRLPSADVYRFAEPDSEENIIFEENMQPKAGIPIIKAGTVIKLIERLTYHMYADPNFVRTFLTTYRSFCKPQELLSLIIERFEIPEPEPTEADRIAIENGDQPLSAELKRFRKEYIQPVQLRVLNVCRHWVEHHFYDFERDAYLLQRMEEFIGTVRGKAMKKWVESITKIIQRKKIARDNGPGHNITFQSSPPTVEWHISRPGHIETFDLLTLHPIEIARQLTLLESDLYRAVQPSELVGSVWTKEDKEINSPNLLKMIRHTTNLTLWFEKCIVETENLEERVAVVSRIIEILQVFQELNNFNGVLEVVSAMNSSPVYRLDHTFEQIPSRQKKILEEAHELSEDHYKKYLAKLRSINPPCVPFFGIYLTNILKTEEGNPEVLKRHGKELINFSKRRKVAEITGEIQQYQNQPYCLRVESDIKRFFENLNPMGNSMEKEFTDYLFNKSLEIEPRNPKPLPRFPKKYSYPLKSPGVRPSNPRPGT
In short: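 Kd was obtained by plotting binding response, taken just before association ended, versus compound concentration on a Biacore 8K. Compounds flowed at 50 μL/min over streptavidin-captured avi-SOS1 catalytic domain (~6000 RU), followed by buffer dissociation; HEPES 0.01 M/NaCl 0.15 M/0.05% P20 buffer, double-referenced.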

[3] = biological target: T1, SOS1 catalytic domain (residues 564-1049); test: Mode of Action Assay: inhibition of SOS1 nucleotide exchange activity (SOS1 TR-FRET IC50 Assay)

| IC50 [1] | Kd [2] | IC50 [3] | SMILES |
| --- | --- | --- | --- |
| < 1000 nM | < 400 nM | < 1000 nM | C[C@@H](Nc1nc(Cl)nc2c1CN(C(=O)C1CNCCO1)C2)c1cccc(C(F)F)c1F (stereo partly drawn) [Example 288] |
| < 1000 nM | < 400 nM | < 1000 nM | COC1CC(N)(C(=O)N2Cc3nc(Cl)nc(N[C@H](C)c4cccc(C(F)F)c4F)c3C2)C1 (stereo partly drawn) [Example 289] |
| < 1000 nM | < 400 nM | < 1000 nM | C[C@@H](Nc1nc(Cl)nc2c1CN(C(=O)[C@]13CN[C@H](CO1)C3)C2)c1cccc(C(F)F)c1F [Example 290] |
| < 1000 nM | > 400 nM | < 1000 nM | C[C@@H](Nc1nc(Cl)nc2c1CN(C(=O)CC1COCCN1)C2)c1cccc(C(F)F)c1F (stereo partly drawn) [Example 291] |
| < 1000 nM | < 400 nM | < 1000 nM | C[C@@H](Nc1nc(Cl)nc2c1CN(C(=O)CN1CCOCC1)C2)c1cccc(C(F)F)c1F [Example 292] |
| < 1000 nM | < 400 nM | < 1000 nM | C[C@@H](Nc1nc(Cl)nc2c1CN(C(=O)C1CNCCOC1)C2)c1cccc(C(F)F)c1F (stereo partly drawn) [Example 293] |
| < 1000 nM | < 400 nM | < 1000 nM | C[C@@H](Nc1nc(Cl)nc2c1CN(C(=O)C1(C#N)CCNCC1)C2)c1cccc(C(F)F)c1F [Example 294] |
| < 1000 nM | < 400 nM | < 1000 nM | C[C@@H](Nc1nc(Cl)nc2c1CN(C(=O)C1CN(C3CCOC3)C1)C2)c1cccc(C(F)F)c1F (stereo partly drawn) [Example 295] |
| < 1000 nM | < 400 nM | < 1000 nM | CC(CC(=O)N1Cc2nc(Cl)nc(N[C@H](C)c3cccc(C(F)F)c3F)c2C1)N1CCNCC1 (stereo partly drawn) [Example 296] |
| < 1000 nM | < 400 nM | < 1000 nM | C[C@@H](Nc1nc(Cl)nc2c1CN(C(=O)C13CN(C1)S(=O)(=O)C3)C2)c1cccc(C(F)F)c1F [Example 297] |
| > 1000 nM | < 400 nM | < 1000 nM | C[C@@H](Nc1nc(Cl)nc2c1CN(C(=O)C1CN(C)CCO1)C2)c1cccc(C(F)F)c1F (stereo partly drawn) [Example 298] |
| < 1000 nM | < 400 nM | < 1000 nM | C[C@@H](Nc1nc(Cl)nc2c1CN(C(=O)C1(C#N)CCN(C)CC1)C2)c1cccc(C(F)F)c1F [Example 299] |
| < 1000 nM | < 400 nM | < 1000 nM | C[C@@H](Nc1nc(Cl)nc2c1CN(C(=O)C1(O)COC1)C2)c1cccc(C(F)F)c1F [Example 300] |
| < 1000 nM | < 400 nM | < 1000 nM | COC1(C(=O)N2Cc3nc(Cl)nc(N[C@H](C)c4cccc(C(F)F)c4F)c3C2)CNC1 [Example 302] |
| < 1000 nM | < 400 nM | < 1000 nM | C[C@@H](Nc1nc(Cl)nc2c1CN(C(=O)[C@@H]1CNCCO1)C2)c1cccc(C(F)F)c1F [Example 303] |
| > 1000 nM | < 400 nM | < 1000 nM | C[C@@H](Nc1nc(Cl)nc2c1CN(C(=O)[C@H]1COCCN1)C2)c1cccc(C(F)F)c1F [Example 304] |
| > 1000 nM | < 400 nM | < 1000 nM | C[C@@H](Nc1nc(Cl)nc2c1CN(C(=O)C1CCNCC1F)C2)c1cccc(C(F)F)c1F (stereo partly drawn) [Example 305] |
| < 1000 nM | < 400 nM | < 1000 nM | C[C@@H](Nc1nc(Cl)nc2c1CN(C(=O)[C@H]1CCOC[C@H]1N)C2)c1cccc(C(F)F)c1F [Example 306] |
| < 1000 nM | < 400 nM | < 1000 nM | C[C@@H](Nc1nc(Cl)nc2c1CN(C(=O)[C@H]1CNCCO1)C2)c1cccc(C(F)F)c1F [Example 307] |
| < 1000 nM | < 400 nM | < 1000 nM | C[C@@H](Nc1nc(Cl)nc2c1CN(C(=O)[C@@H]1COCCN1)C2)c1cccc(C(F)F)c1F [Example 309] |
| < 1000 nM | < 400 nM | < 1000 nM | COC1(C(=O)N2Cc3nc(Cl)nc(N[C@H](C)c4cccc(C(F)F)c4F)c3C2)CCNCC1 [Example 310] |
| < 1000 nM | < 400 nM | < 1000 nM | C[C@@H](Nc1nc(Cl)nc2c1CN(C(=O)C1CCNCC1(F)F)C2)c1cccc(C(F)F)c1F (stereo partly drawn) [Example 311] |

| IC50 [1] | Kd [2] | IC50 [3] | SMILES |
| --- | --- | --- | --- |
| < 1000 nM | < 400 nM | < 1000 nM | C[C@@H](Nc1nc(Cl)nc2c1CN(C(=O)C13CCN(CC1)C3)C2)c1cccc(C(F)F)c1F [Example 312] |
| > 1000 nM | < 400 nM | < 1000 nM | C[C@@H](Nc1nc(Cl)nc2c1CN(C(=O)C1(C)CCNCC1)C2)c1cccc(C(F)(F)F)c1 [Example 314] |
| < 1000 nM | < 400 nM | < 1000 nM | COC1(C(=O)N2Cc3nc(Cl)nc(N[C@H](C)c4cccc(C(F)(F)F)c4)c3C2)CCNCC1 [Example 315] |
| < 1000 nM | < 400 nM | < 1000 nM | COC1(C(=O)N2Cc3nc(Cl)nc(N[C@H](C)c4cccc(C(F)(F)F)c4)c3C2)CNC1 [Example 316] |
| > 1000 nM | < 400 nM | < 1000 nM | C[C@@H](Nc1nc(Cl)nc2c1CN(C(=O)C1CCN3CCOCC13)C2)c1cccc(C(F)F)c1F (stereo partly drawn) [Example 318] |
| < 1000 nM | < 400 nM | < 1000 nM | C[C@@H](Nc1nc(Cl)nc2c1CN(C(=O)C1CCN(C)C1)C2)c1cccc(C(F)F)c1F (stereo partly drawn) [Example 319] |
| < 1000 nM | < 400 nM | < 1000 nM | C[C@@H](Nc1nc(Cl)nc2c1CN(C(=O)C1COCCN(C)C1)C2)c1cccc(C(F)F)c1F (stereo partly drawn) [Example 320] |
| < 1000 nM | < 400 nM | < 1000 nM | C[C@@H](Nc1nc(Cl)nc2c1CN(C(=O)[C@@H]1COCCN1C)C2)c1cccc(C(F)F)c1F [Example 321] |
| < 1000 nM | < 400 nM | < 1000 nM | C[C@@H](Nc1nc(Cl)nc2c1CN(C(=O)CC1COCCN1C)C2)c1cccc(C(F)F)c1F (stereo partly drawn) [Example 322] |
| < 1000 nM | < 400 nM | < 1000 nM | COC1(C(=O)N2Cc3nc(Cl)nc(N[C@H](C)c4cccc(C(F)F)c4F)c3C2)CCN(C)CC1 [Example 323] |
| < 1000 nM | < 400 nM | < 1000 nM | COC1(C(=O)N2Cc3nc(Cl)nc(N[C@H](C)c4cccc(C(F)F)c4F)c3C2)CN(C)C1 [Example 324] |
| < 1000 nM | < 400 nM | < 1000 nM | COC1(C(=O)N2Cc3nc(Cl)nc(N[C@H](C)c4cccc(C(F)F)c4F)c3C2)CCN(C2COC2)CC1 [Example 325] |
| < 1000 nM | < 400 nM | < 1000 nM | C[C@@H](Nc1nc(Cl)nc2c1CN(C(=O)C1(F)CCN(C)CC1)C2)c1cccc(C(F)F)c1F [Example 326] |
| < 1000 nM | < 400 nM | < 1000 nM | C[C@@H](Nc1nc(Cl)nc2c1CN(C(=O)C1(C)CCN(C3COC3)CC1)C2)c1cccc(C(F)F)c1F [Example 327] |
| < 1000 nM | < 400 nM | < 1000 nM | C[C@@H](Nc1nc(Cl)nc2c1CN(C(=O)C1(C#N)CNC1)C2)c1cccc(C(F)F)c1F [Example 328] |
| < 1000 nM | < 400 nM | < 1000 nM | C[C@@H](Nc1nc(Cl)nc2c1CN(C(=O)C1(F)CN(C3COC3)C1)C2)c1cccc(C(F)F)c1F [Example 329] |
| < 1000 nM | < 400 nM | < 1000 nM | COC1(C(=O)N2Cc3nc(Cl)nc(N[C@H](C)c4cccc(C(F)F)c4F)c3C2)CCOCC1 [Example 330] |
| < 1000 nM | < 400 nM | < 1000 nM | C[C@@H](Nc1nc(Cl)nc2c1CN(C(=O)C1(F)CCN(C3COC3)CC1)C2)c1cccc(C(F)F)c1F [Example 331] |
| > 1000 nM | > 400 nM | < 1000 nM | CC(=O)NC1(C(=O)N2Cc3nc(Cl)nc(N[C@H](C)c4cccc(C(F)F)c4F)c3C2)CCCCC1 [Example 332] |
| < 1000 nM | < 400 nM | < 1000 nM | CNC1(C(=O)N2Cc3nc(Cl)nc(N[C@H](C)c4cccc(C(F)F)c4F)c3C2)CCOCC1 [Example 333] |
| < 1000 nM | < 400 nM | < 1000 nM | CNC1(C(=O)N2Cc3nc(Cl)nc(N[C@H](C)c4cccc(C(F)F)c4F)c3C2)CCOC1 (stereo partly drawn) [Example 334] |
| < 1000 nM | < 400 nM | < 1000 nM | C[C@@H](Nc1nc(Cl)nc2c1CN(C(=O)C1(C)CN(C3COC3)C1)C2)c1cccc(C(F)F)c1F [Example 335] |

| SMILES | IC50 [1] | Kd [2] | IC50 [3] |
| --- | --- | --- | --- |
| C[C@@H](Nc1nc(Cl)nc2c1CN(C(=O)C13CCN(CC1)CC3)C2)c1cccc(C(F)F)c1F [Example 313] | < 1000 nM | < 400 nM | < 1000 nM |

— US20230096028A1, “BICYCLIC HETEROCYCLYL COMPOUNDS AND USES THEREOF” (Revolution Medicines, Inc., priority 2019, published 2023)
